In patent US20070043327A1, “Drug delivery device comprising a mesh sleeve” (priority 2003, published 2007):

How the values were obtained:
[1] = release of mefenamic acid from intravaginal devices into water; type: physicochemical; conditions: 100 ml water, stirred gently, six devices
Source text: The final intra-vaginal devices, namely coupons fixed directly to tampons or coupons fixed to tampons via the sleeve were then compared for their ability to release an active pharmaceutical, in this case mefenamic acid, when placed in an aqueous environment. This enabled functional ‘equivalence’ of the devices to be confirmed. Intravaginal devices constructed by the direct application of coupons to tampons were compared to intravaginal devices constructed using the mesh sleeve. Devices were placed in beakers containing 100 ml water and stirred gently for varying periods of time. The fluid phase was removed brought to a […] with sodium hydroxide and the concentration of mefenamic determined by spectrophotometry.

[2] = clinical study: circulating plasma concentrations of mefenamic acid after intravaginal devices; type: in vivo; conditions: human volunteers, intravaginal tampon with directly attached coupons
Protocol: The purpose of the device described here is to administer mefenamic acid via the intravaginal route. In one clinical study, intravaginal devices, using the direct process of attachment of coupons to tampons were prepared to cGMP (Good Manufacturing Procedure); devices were prepared containing 20, 40 or 80 mg per tampon.
These were administered to human volunteers in a study conforming to Good Clinical Procedure and circulating plasma concentrations of mefenamic acid were determined after drawing blood samples.

[3] = 20 mg mefenamic acid per tampon
[4] = 40 mg mefenamic acid per tampon
[5] = 80 mg mefenamic acid per tampon

- mefenamic acid recovered in the aqueous phase (mean) ([1]; devices with coupons attached via the mesh sleeve, 80 mg per sleeve): 73.7 mg
- mefenamic acid recovered in the aqueous phase (mean) ([1]; devices with coupons directly attached to tampons, 80 mg per tampon): 72.8 mg
- Accumulated dose (0-7) [2, 3]: 44.7
- Max. plasma conc. [2, 3]: 4.23 ng/mL
- Accumulated dose (0-7) [2, 4]: 197
- Max. plasma conc. [2, 4]: 14.9 ng/mL
- Accumulated dose (0-7) [2, 5]: 257
- Max. plasma conc. [2, 5]: 19.5 ng/mL
Structure (SMILES): Cc1cccc(Nc2ccccc2C(=O)O)c1C [mefenamic acid, 2-[2,3-Dimethylphenylamino] benzoid acid]
